Measured values as given in patent publication US12138383B2, “Heating unit for use in a drug delivery device” (ALEXZA PHARMACEUTICALS, INC., priority 2007, dated 2024).

Assay: Aerosol purity of condensation aerosol vaporized from drug-coated substrate in substrate screening apparatus (HPLC of filter extract)
Assay type: physicochemical
Conditions: for Aerosol Purity (% ± SD): perforated 304 stainless steel, 0.4 mg/cm^2, approx. 375° C.; for Aerosol Purity (%): 14 μm coating, 30 liters/minute
Source text: The substrate screening apparatus 400 is made of a machined plastic (polyoxymethylene, DELRIN® Acetal Resin, DuPont, Wilmington, DE) block 402 with a 2 cm^2 cross-sectional area for mounting a substrate 412. Block 402 includes a first airway 404 extending from first inlet 414 to outlet 422. Block 402 also include a second airway 406 extending from second inlet 416 to substrate 412, where it typically joins the first airway. The substrate 412 is mounted in the substrate screening apparatus 400 across two electrodes 420. A first air flow 414 is established in first airway 404 and a second air flow 416 is established in second airway 406 such that the second air flow 416 passes from the second airway 406 to first airway 404 through holes in the substrate 412. While providing air flows 414 and 416, the substrate 412 is heated, typically by discharging a capacitor (not shown) across the substrate 412. In a one embodiment, the flow of air passing through holes in the substrate 412 is in a direction orthogonal to that of air flow 414. Substrate 412 is coated with a drug composition film. The substrate 412 is heated to vaporized all or a portion of the drug composition. The vaporized drug subsequently cools and condenses to form a condensation aerosol that is carried to the outlet by air flow 414, joined by air flow 416). Accordingly, the condensation aerosol is emitted from the outlet 422.
The test substrates were then coated with a drug composition. The drug was typically dissolved in a volatile organic solvent (e.g., dichloromethane/methanol mixture or acetone or other suitable organic solvent) and then spray-coated onto the test substrates using an automated spray coater. Coating parameters, such as the drug concentration in the coating solution, solution flow rate, were selected to obtain a uniform drug coating of the desired coating density (i.e., mass/area).
Total air flow through the substrate screening apparatus was set by providing air flows 414 and 416 at a desired ratio. (As used herein, “across” air flow refers to air flow 414 and “bottom” air flow refers to air flow 416.) Brass electrodes 420 attached to the substrate screening apparatus 400 were used to clamp the substrate 412 in place and provide electrical connections. For most experiments, a 1-Farad capacitor was used as the energy source. The capacitor was typically charged to 11-14 volts, depending on the desired substrate temperature. A high current relay was used to connect the circuit and discharge the capacitor across the substrate to induce heating and vaporization of the drug.
FIG. 5 is a schematic of another embodiment of a substrate screening apparatus 500 that was used to direct air flow through the holes of coated polyimide film (KAPTON® polyimide film) substrates (see FIGS. 2A and 2B). Substrate screening apparatus 500 is similar in configuration and operation to substrate screening apparatus 400, with the exception that substrate screening apparatus 500 includes two electrodes 502 on the same side of the screening apparatus 500, whereas substrate screening apparatus 400 includes two electrodes 420 on opposite sides of the screening apparatus 400. In the examples using polyimide film substrates described below, a polyimide film substrate coated with a drug composition was placed in substrate screening apparatus 500 across electrodes 502. A computer-controlled power supply was connected to the electrodes. The power supply was typically capable of heating the polyimide film substrate to the target temperature within 300 milliseconds, and the substrate was kept at the target temperature for a duration of 1 second.
To determine aerosol purity and emitted dose, a 2 μm Teflon filter (ZEFLUOR PTFE filters, available from Zefon International, Inc., Ocala, FL) was placed immediately downstream from the screening apparatus during aerosol generation. […]

C[C@@H]1C[C@H]2[C@@H]3CCC4=CC(=O)C=C[C@]4(C)[C@@]3(Cl)[C@@H](O)C[C@]2(C)[C@@]1(OC(=O)c1ccco1)C(=O)CCl
aerosol purity (non-perforated SULFINERT-treated and heat-passivated 304 stainless steel, 350° C., no air flow ratio): poor

CC1(C)O[C@@H]2C[C@H]3[C@@H]4C[C@H](F)C5=CC(=O)C=C[C@]5(C)[C@H]4[C@@H](O)C[C@]3(C)[C@]2(C(=O)CO)O1 [Flunisolide, flunisolide]
Aerosol Purity (% ± SD) (across:bottom 18:10, hole diameter 0.005″, porosity 5%): 80.1 ± 1.8%
Aerosol Purity (% ± SD) (across:bottom 18:10, hole diameter 0.005″, porosity 10%): 81.4 ± 0.9%
Aerosol Purity (% ± SD) (across:bottom 18:10, hole diameter 0.005″, porosity 20%): 90.7 ± 0.7%
Aerosol Purity (% ± SD) (across:bottom 18:10, hole diameter 0.010″, porosity 5%): 83.6 ± 1.4%
Aerosol Purity (% ± SD) (across:bottom 18:10, hole diameter 0.010″, porosity 10%): 75.4 ± 1.2%
Aerosol Purity (% ± SD) (across:bottom 18:10, hole diameter 0.010″, porosity 20%): 80.8 ± 1.4%
Aerosol Purity (% ± SD) (across:bottom 18:10, hole diameter 0.010″, porosity 40%): 85.6 ± 0.8%
Aerosol Purity (% ± SD) (across:bottom 18:10, hole diameter 0.020″, porosity 5%): 77.8 ± 2%
Aerosol Purity (% ± SD) (across:bottom 18:10, hole diameter 0.020″, porosity 10%): 77.2 ± 2.8%
Aerosol Purity (% ± SD) (across:bottom 18:10, hole diameter 0.020″, porosity 20%): 74.7 ± 1%
Aerosol Purity (% ± SD) (across:bottom 18:10, hole diameter 0.020″, porosity 40%): 81.9 ± 1.2%
Aerosol Purity (% ± SD) (across:bottom 18:10, hole diameter 0.040″, porosity 5%): 70.4 ± 1.1%
Aerosol Purity (% ± SD) (across:bottom 18:10, hole diameter 0.040″, porosity 40%): 77 ± 1%
Aerosol Purity (% ± SD) (across:bottom 23:5, hole diameter 0.005″, porosity 5%): 73.6 ± 2.3%
Aerosol Purity (% ± SD) (across:bottom 23:5, hole diameter 0.005″, porosity 10%): 82.7 ± 1.4%
Aerosol Purity (% ± SD) (across:bottom 23:5, hole diameter 0.005″, porosity 20%): 87.9 ± 2%
Aerosol Purity (% ± SD) (across:bottom 23:5, hole diameter 0.010″, porosity 5%): 76.1 ± 0.1%
Aerosol Purity (% ± SD) (across:bottom 23:5, hole diameter 0.010″, porosity 10%): 71.4 ± 0.7%
Aerosol Purity (% ± SD) (across:bottom 23:5, hole diameter 0.010″, porosity 20%): 80.6 ± 3.1%
Aerosol Purity (% ± SD) (across:bottom 23:5, hole diameter 0.010″, porosity 40%): 84.2 ± 0.1%
Aerosol Purity (% ± SD) (across:bottom 23:5, hole diameter 0.020″, porosity 5%): 77.9 ± 1.1%
Aerosol Purity (% ± SD) (across:bottom 23:5, hole diameter 0.020″, porosity 10%): 72.7 ± 1.8%
Aerosol Purity (% ± SD) (across:bottom 23:5, hole diameter 0.020″, porosity 20%): 69.9 ± 0.3%
Aerosol Purity (% ± SD) (across:bottom 23:5, hole diameter 0.020″, porosity 40%): 80 ± 1.3%
Aerosol Purity (% ± SD) (across:bottom 23:5, hole diameter 0.040″, porosity 5%): 68.6 ± 1.1%
Aerosol Purity (% ± SD) (across:bottom 23:5, hole diameter 0.040″, porosity 40%): 74.3 ± 7.3%

CN1CCN(CCCN2c3ccccc3Sc3ccc(Cl)cc32)CC1 [Prochlorperazine, prochlorperazine]
Coated Aerosol Purity (%) (coated drug on polyimide film, coating thickness 14 μm): 98.85%
aerosol purity (perforated polyimide film, 100% of air flow through the substrate, up to at least 30 μm coating thickness, 28.3 liters/minute): ≥ 98%
Aerosol Purity (%) (perforated polyimide film, large holes, across:bottom 75:25): 97.7%
Aerosol Purity (%) (perforated polyimide film, large holes, across:bottom 100:0): 97.1%
Aerosol Purity (%) (perforated polyimide film, small holes, across:bottom 75:25): 97.4%
Aerosol Purity (%) (perforated polyimide film, small holes, across:bottom 100:0): 94.8%

NCC(CC(=O)O)c1ccc(Cl)cc1 (stereo not drawn) [baclofen]
drug purity (aerosol) (perforated polyimide film, across:bottom 27:1, 350° C.): around 20%

CCC(=O)O[C@]1(C(=O)SCF)[C@H](C)C[C@H]2[C@@H]3C[C@H](F)C4=CC(=O)C=C[C@]4(C)[C@@]3(F)[C@@H](O)C[C@@]21C [fluticasone propionate]
aerosol purity (perforated polyimide film, all four test conditions (3:1 and 1:3, 325° C. and 350° C.)): > 97%

CCCc1nn(C)c2c(=O)[nH]c(-c3cc(S(=O)(=O)N4CCN(C)CC4)ccc3OCC)nc12 [sildenafil free base, sildenafil]
aerosol purity (perforated 316 stainless steel, 1:9 across:bottom, drug coating thicknesses up to 6 μm, 28.3 liters/minute): ≥ 97%
aerosol purity (solid 304 stainless steel, 100% air flow across, drug coating thickness 2 μm): ≤ 94%
aerosol purity (solid 304 stainless steel, 100% air flow across, drug coating thicknesses greater than about 1 μm): below 97%

cyclobenzaprine fumarate
aerosol purity (perforated polyimide film, all three test conditions (6:1 at 375° C., 3:1 at 350° C., 1:1 at 350° C.)): > 99.7%
